What was measured:
Eimeria tenella = assay: Minimum effective concentration in feed to protect chickens against infections caused by Eimeria tenella; assay type: functional
[1] = Plasma half-life in 6-8 weeks old broiler chickens; assay type: ADME, organism-based, Gallus gallus; conditions: chicken
[2] = Plasma half-life in 2 weeks-old chickens; assay type: ADME, organism-based, Gallus gallus; conditions: chicken

half-life [1] [h]	half-life [2] [h]	Compound	MEC (Eimeria tenella) [p.p.m.]
–	–	Cc1cc(-n2ncc(=O)[nH]c2=O)cc(C)c1Sc1ccc(I)cc1	15
–	–	O=c1cnn(-c2ccc(Sc3ccc(Cl)cc3)cc2)c(=O)[nH]1	4
–	–	O=c1cnn(-c2ccc(Sc3ccc(Br)cc3)c(Cl)c2)c(=O)[nH]1	2
–	–	CSc1c(Cl)cc(-n2ncc(=O)[nH]c2=O)cc1Cl	30
–	–	Cc1ccccc1S(=O)(=O)c1ccc(-n2ncc(=O)[nH]c2=O)cc1	>125
–	–	O=c1cnn(-c2ccc(S(=O)(=O)c3ccc(Cl)cc3)cc2)c(=O)[nH]1	4
–	–	Cc1cc(-n2ncc(=O)[nH]c2=O)cc(Cl)c1Sc1ccc(Cl)cc1	0.25
–	–	CCc1cc(-n2ncc(=O)[nH]c2=O)cc(C)c1Sc1ccc(Cl)cc1	60
–	–	O=c1cnn(-c2ccc(Sc3ccc(Cl)cc3)c([N+](=O)[O-])c2)c(=O)[nH]1	60
–	–	C[S+]([O-])c1c(Cl)cc(-n2ncc(=O)[nH]c2=O)cc1Cl (stereo not given)	>125
–	–	O=c1cnn(-c2cc(Cl)c(S(=O)(=O)c3ccc(Cl)cc3)c(Cl)c2)c(=O)[nH]1	0.5
–	–	COc1cc(-n2ncc(=O)[nH]c2=O)ccc1S(=O)(=O)c1ccc(Cl)cc1	>125
14.5	10	Cc1cc(-n2ncc(=O)[nH]c2=O)ccc1S(=O)(=O)c1ccc(Cl)cc1	2
38	–	O=c1cnn(-c2ccc(Sc3ccc(Cl)cc3)c(Cl)c2)c(=O)[nH]1	2
–	–	O=c1cnn(-c2ccc(S(=O)(=O)c3ccc(Cl)cc3)c(Cl)c2)c(=O)[nH]1	2
–	–	CS(=O)(=O)c1c(Cl)cc(-n2ncc(=O)[nH]c2=O)cc1Cl	>125
–	–	O=c1cnn(-c2cc(Cl)c(Sc3ccccc3)c(Cl)c2)c(=O)[nH]1	8
–	–	Cc1ccc(S(=O)(=O)c2ccc(-n3ncc(=O)[nH]c3=O)cc2)cc1	250
47	–	O=c1cnn(-c2cc(Cl)c(Sc3ccc(Cl)cc3)c(Cl)c2)c(=O)[nH]1	0.25

half-life [1] [h]	half-life [2] [h]	Compound	MEC (Eimeria tenella) [p.p.m.]
–	19	O=c1cnn(-c2ccc(S(=O)(=O)c3ccc(Br)cc3)cc2)c(=O)[nH]1	8
–	–	O=c1cnn(-c2cc(Cl)c(Sc3ccc(S(=O)(=O)N4CCOCC4)cc3)c(Cl)c2)c(=O)[nH]1	>60
–	–	O=c1cnn(-c2cc(Br)c(Sc3ccc([N+](=O)[O-])cc3)c(Br)c2)c(=O)[nH]1	8
–	–	CC(c1ccccc1)S(=O)(=O)c1ccc(-n2ncc(=O)[nH]c2=O)cc1 (stereo not given)	>125
–	–	O=c1cnn(-c2ccc(S(=O)(=O)c3ccc([N+](=O)[O-])cc3)cc2)c(=O)[nH]1	>250
–	–	Cc1cc(-n2ncc(=O)[nH]c2=O)cc(C)c1S(=O)(=O)c1ccc(Cl)cc1	1
–	–	Cc1cc(-n2ncc(=O)[nH]c2=O)ccc1[S+]([O-])c1ccc(Cl)cc1 (stereo not given)	4
–	–	CC(C)(C)c1ccc(S(=O)(=O)c2ccc(-n3ncc(=O)[nH]c3=O)cc2)cc1	>250
–	–	Cc1cc(-n2ncc(=O)[nH]c2=O)cc(C)c1[S+]([O-])c1ccc(Cl)cc1 (stereo not given)	1
–	–	O=c1cnn(-c2ccc(Sc3ccc([N+](=O)[O-])cc3)cc2)c(=O)[nH]1	30
–	–	O=c1cnn(-c2ccc(S(=O)(=O)Cc3ccccc3)cc2)c(=O)[nH]1	>125
26	–	Cc1cc(-n2ncc(=O)[nH]c2=O)cc(Cl)c1S(=O)(=O)c1ccc(Cl)cc1	15
–	–	O=c1cnn(-c2ccc(S(=O)(=O)c3ccccc3)cc2)c(=O)[nH]1	30
–	–	Cc1cc(-n2ncc(=O)[nH]c2=O)ccc1Sc1ccc(Cl)cc1	2
–	–	Cc1cc(-n2ncc(=O)[nH]c2=O)ccc1S(=O)(=O)c1ccc(Br)cc1	15
–	–	CC(C)(C)c1ccc(Sc2ccc(-n3ncc(=O)[nH]c3=O)cc2Cl)cc1	>60
–	–	O=c1cnn(-c2ccc(S(=O)(=O)Cc3ccc(Cl)cc3)cc2)c(=O)[nH]1	250
–	–	O=c1cnn(-c2ccc(Sc3ccc4ccccc4c3)c(Cl)c2)c(=O)[nH]1	125
16	–	Cc1cc(-n2ncc(=O)[nH]c2=O)cc(C)c1Sc1ccc(Cl)cc1 [TIAZURIL]	0.5
